Data on 1 substance can be found in US20050180954A1, “Drug for treating bone disorders” (priority 1995, published 2005).

The subject of data set [1] is ovariectomized mice of ddy strain. Put plainly: Osteoporosis model mice (ovariectomy): dry bone weight of femur. In kind it is in vivo, mouse. Here is the method:
(§1) Female mice of ddy strain of 8 weeks old were divided into 5 groups and experiment was carried out. Bilateral ovariectomy was performed on the mice in 3 groups and sham operation alone was performed on the mice in 2 groups. Thereafter, the mice were raised with normal diet for 1 month, thereby making the state of osteoporosis in the ovariectomized groups. In this model, it is known that the mice become the state of osteoporosis 2 to 3 weeks after the ovariectomy (T. Hosaka et al., ANITEX, Vol. 5, 243, 1992; Miyaura, C. et al., J. Bone Mineral Res., 10, 1365, 1995). From the third weeks from the ovariectomy, murine IFN was subcutaneously administered (100 μl/head/time) once per day, totally 25 times. On Day 30 from the beginning of administration, under ether anesthesia, body weight was measured, blood was collected, and femur was collected and dry bone weight thereof was measured for each mouse.
Drying of femur was performed as follows. That is, femur was fixed with 2 ml of 70% ethanol per one taken out femur at room temperature for 24 hours and then the attached muscles and connective tissues were carefully removed with a forceps and surgical knife with replaceable blade. After immersing the femur in fresh 70% ethanol for 72 hours at room temperature, the femur was dried in a hot wind-generating incubator (Koukensha Engineering. Co., Tokyo) at 55° C. for 24 hours. The weight of the dried bone was measured with an electronic force balance (Mettler AE50, Metteler Instrumente AG, Switzerland). Murine IFN to be administered was diluted to the desired concentration with physiological saline. During the test, urine of mice was collected with metabolic cage (KN-645, Natsumeseisakusho, Tokyo) and frozen to store. To one group subjected to the sham operation, physiological saline (Otsuka Pharmaceutical Co.) was administered, and to another group subjected to the sham operation, murine IFNβ was administered at a dose of 10^5 units/head/time (diluted with physiological saline when use). […]

Data set [2] in a line: Osteoporosis model mice: change in body weight. In kind it is in vivo, mouse. The following applies: administration continuously for 4 weeks at a dose exhibiting the therapeutic effect. Here is the method:
as §1
It is well-known that the increase and decrease in the amount of urinary D-Pyr excreted in urine, which is a crosslinked substance of bone collagen, is an excellent marker reflecting the degree of degradation of bone collagen, that is, the degree of bone resorption (C. P. Jerome et al., Bone and Mineral, 19, 117-125, 1992). For measurement of urinary D-Pyr, a commercially available kit (PYRILINKS-D Assay, METRA BIOSYSTEMS) was used. […]

The test system of data set [3] is MC3T3-E1 cells. Put plainly: Quantification of calcium in calcified foci of MC3T3-E1. The following applies: 1000 units/ml; MC3T3-E1, Day 14. Type of data set: cell-based, mouse. The procedure:
MC3T3-E1 cells were placed in each well in 24-well plates in an amount of 50,000 cells/well and cultured to confluency. The medium was removed and fresh α-MEM containing 10% JCS, 50 μg/ml of L-ascorbic acid and 10 mM β-glycerophosphate was added in an amount of 0.9 ml/well, followed by adding 0.1 ml/well of medium containing varying concentration of IFN. The medium was replaced with IFN-free medium every 4 days. On Day 14, the medium was removed and the cells were lightly washed with Hank's solution. Anhydrous ethanol was added in an amount of 1 ml/well and fixation was carried out at room temperature for 15 minuets. Then the anhydrous ethanol was replaced with fresh anhydrous ethanol in an amount of 1 ml/well and 5 minutes later, each well was dried in the air. Then 1N hydrochloric acid was added in an amount of 1 ml/well and extraction was carried out at room temperature for 30 minutes. The total contents of each well were transferred to an Eppendorf tube and centrifuged at 1800×g at 4° C. for 10 minutes The amount of calcium in the supernatant was measured by Calcium C Test Wako and the amount of inorganic phosphorus in the supernatant was measured by Phospha B Test Wako. […] The IC50 value was as low as about 10 units/ml (FIG. 5).

The subject of data set [4] is MC3T3-E1 cells. Put plainly: Mineralization of murine osteoblasts, Von Kossa stain (in vitro multiple administration). Type of data set: cell-based, mouse. Conditions: MC3T3-E1, twice administration, Von Kossa on Day 9. Here is the method:
MC3T3-E1 cells were placed in each well in 24-well plates in an amount of 30,000 cells/well and cultured to confluency. The medium was removed and fresh α-MEM containing 10% JCS, 50 μg/ml of L-ascorbic acid and 10 mM β-glycerophosphate was added in an amount of 0.9 ml/well, followed by adding 0.1 ml/well of medium containing varying concentration of IFN. The medium was replaced with the medium containing the respective concentration of IFN every 4 days. On Day 9 from the first treatment with IFN, Von Kossa stain was performed to visualize the calcified foci.

Turning to “MuIFNβ: murine interferon β, Lot M-0034, prepared by Toray Industries, Inc. by genetic engineering technique”, the “bone volume (dry bone weight of femur)” value in data set [1] (ovariectomized mice, 10^3 units/head/time s.c.) was “exhibited prevention effect against further loss in the bone volume”; in data set [1] (ovariectomized mice, 10^5 units/head/time s.c. once per day, 25 times, Day 30), “recovered the normal level of bone volume”; in data set [1] (sham operation mice, 10^5 units/head/time s.c.) it was “significant increase in the bone volume was not observed”. For the same substance, in data set [2], the “change in body weight” value is “no problematic change in body weight was observed in any group”. Also, the “calcium deposition smaller than the control” value with MC3T3-E1 cells [3] was found to be 20%. Further, the “number of calcified foci and intensity of staining” value in the data set on MC3T3-E1 cells [4] is “dose dependently increased”.
